Tests used:
microglia = assay: Iba-1 immunostaining, activated microglia counts in CA3 after SE; type: in vivo, mice; conditions: CA3, 24 h after SE; vs vehicle
Procedure: Adult male C57BL/6 mice (20-25 g) were obtained from Harlan UK (Blackthorn, UK). Mice were first anesthetized using isoflurane (3-5%) and maintained normothermic by means of a feedback-controlled heat blanket (Harvard Apparatus Ltd, Kent, UK). Mice were next placed in a stereotaxic frame and three partial craniectomies performed to affix cortical skull-mounted EEG electrodes (Bilaney Consultants Ltd, Sevenoaks, UK). EEG was recorded using a Grass Comet XL digital EEG (Medivent Ltd, Lucan, Ireland). A guide cannula was affixed (coordinates from Bregma: AP = 0.94; L = 2.85 mm) and the assembly fixed in place with dental cement. Anesthesia was then discontinued and freely moving mice were placed inside a clear perspex recording chamber. EEG recordings were commenced and after establishing baseline EEG for a few minutes, an injection cannula was lowered through the guide cannula for injection of kainic acid (KA) (Ocean Produce International, Nova Scotia, Canada) into the basolateral amygdala nucleus (0.3 µg in 0.2 µl phosphate-buffered saline). Non-seizure control mice underwent the same surgical procedure but received 0.2 µl intra-amygdala vehicle. Mice were killed at different time-points (1, 4, 8 or 24 h) later and perfused with saline to remove intravascular blood components. […]

Adult male C57BL/6 mice [1] = assay: Histopathology of ipsilateral hippocampal CA3 after SE (FJB and NeuN counts); type: in vivo; conditions: 24 h after SE, vs vehicle; for Counts of surviving CA3 neurons (NeuN) / FJB-positive cells within the CA3 subfield (neuronal death): drug given prior to SE
Procedure: (§1) Adult male C57BL/6 mice (20-25 g) were obtained from Harlan UK (Blackthorn, UK). Mice were first anesthetized using isoflurane (3-5%) and maintained normothermic by means of a feedback-controlled heat blanket (Harvard Apparatus Ltd, Kent, UK). Mice were next placed in a stereotaxic frame and three partial craniectomies performed to affix cortical skull-mounted EEG electrodes (Bilaney Consultants Ltd, Sevenoaks, UK). EEG was recorded using a Grass Comet XL digital EEG (Medivent Ltd, Lucan, Ireland). A guide cannula was affixed (coordinates from Bregma: AP = 0.94; L = 2.85 mm) and the assembly fixed in place with dental cement. Anesthesia was then discontinued and freely moving mice were placed inside a clear perspex recording chamber. EEG recordings were commenced and after establishing baseline EEG for a few minutes, an injection cannula was lowered through the guide cannula for injection of kainic acid (KA) (Ocean Produce International, Nova Scotia, Canada) into the basolateral amygdala nucleus (0.3 µg in 0.2 µl phosphate-buffered saline). Non-seizure control mice underwent the same surgical procedure but received 0.2 µl intra-amygdala vehicle. Mice were killed at different time-points (1, 4, 8 or 24 h) later and perfused with saline to remove intravascular blood components. Brains were either flash-frozen whole in 2-methylbutane at […] or perfused with 4% PFA for histopathology, or dissected on ice to obtain whole hippocampus or microdissected to obtain the different hippocampal subfields (CA1, DG and CA3).
Flash-frozen brains in 2-methylbutane were sectioned at -20°C on a Leica cryostat and 12 µm sections collected at the level of dorsal hippocampus (-1.8 mm and - 2.9 mm from Bregma according to a mouse stereotaxic atlas (Paxinos and Franklin, 2001). Neuronal death was assessed using Fluoro-Jade B (FJB) staining, as previously described (Engel et al., 2010; Murphy et al., 2010). Briefly, sections were air-dried and post-fixed in formalin followed by hydrating through graded alcohols. Sections were then rinsed in distilled water and transferred to 0.006% potassium permanganate solution for 15 min. Sections were rinsed again and transferred to a 0.001% FJB solution according to manufacturer's recommendations (Chemicon Europe Ltd, Chandlers Ford, UK). After staining, sections were mounted in DPX (Sigma-Aldrich). For NeuN immunohistochemistry, sections were fixed and permeabilized, blocked in goat serum and incubated overnight with anti-NeuN antibodies (Millipore Ireland B.V., Tullagreen, Ireland) followed by incubation with goat anti-rabbit IgG antibodies coupled to AlexaFluor 568 (BioSciences Limited, Dun Laoghaire, Ireland). Sections were examined using a Nikon 2000s epifluorescence microscope under Ex/Em wavelengths of 472/520 nm (green) and 540 to 580/600 to 660 nm (red) and images captured using a Hamamatsu Orca 285 camera. Cell counts were the average of two adjacent sections for the CA3 subfield under 40x lens magnification by an observer blinded to treatment.

Adult male C57BL/6 mice [2] = assay: Intra-amygdala KA-induced SE in mice, EEG, drug i.c.v. immediately prior to KA; type: in vivo; conditions: i.c.v. co-injection immediately prior to intra-amygdala KA; vs vehicle (antibody vs control IgG); lorazepam at 40 min
Procedure: as §1
Digitized EEG recordings were analyzed off-line using manual assessment and automated software. […] The duration of high-frequency (>5 Hz) high-amplitude (>2× baseline) polyspike discharges of ≥5 s duration (HAHFDs) was counted by a reviewer blind to treatment. Further EEG analysis was performed by uploading EEG into Labchart7 software (ADInstruments) to calculate the power spectral density (total power, a measure of the input signal's power (amplitude) over frequency) EEG spectrogram (spectral power against frequency and time).
All the following drugs were purchased from Sigma-Aldrich Ireland (Arklow, Ireland) and delivered by intracerebroventricular (i.c.v.) microinjection in 2 µl volume unless otherwise specified: Adenosine 5'-triphosphate (ATP) at 100 µM, Uridine-5'-triphosphate (UTP) at 100 µM, Uridine-5'-diphosphate (UDP) at 100 µM, 2-chloro-N6-cyclopentyladenosine (CCPA) 300 nM, Pyridoxal-phosphate-6-azophenyl-2,4-disulfonate (PPADS) at 50 µM, α,β- methylene- adenosine-5-triphosphate (α,β-meATP) at 0.1 nmol, 3-O-(4-benzoyl)benzyl-ATP (Bz-ATP) at 300 µM, Brillant Blue G (BBG) at 30 nM.
Lorazepam (Ativan®, Wyeth, Taplow, U.K.) (6 mg/kg) was administered intraperitoneally (i.p.) at 40 or 60 min after KA.
Next, a model of focal-onset SE was used to evaluate the contributions of ATP-gated receptors in vivo. Mice received intra-amygdala microinjection of KA to induce SE (Fig. 2C). […] The electroencephalogram (EEG) was recorded by using cranial electrodes (lower part of Fig. 2C). Seizures were curtailed after 40 min by the injection of lorazepam to minimize morbidity and mortality.

SMILES	Reactive microglia (Iba-1) (microglia)	Counts of surviving CA3 neurons (NeuN) (Adult male C57BL/6 mice [1])	FJB-positive cells within the CA3 subfield (neuronal death) (Adult male C57BL/6 mice [1])	FJB-positive cells in CA3 (Adult male C57BL/6 mice [1]; injected 15 min after KA)	NeuN-positive cells in CA3 (Adult male C57BL/6 mice [1]; injected 15 min after KA)	seizure time during SE (duration of HAHFDs) (Adult male C57BL/6 mice [2])
Cl.Clc1cccc(-c2nnnn2Cc2cccnc2)c1Cl [A-438079, 3-[[5-(2,3-Dichlorophenyl)-1H-tetrazol-1-yl]methyl]pyridine hydrochloride]	significantly reduced	significantly higher	protect the hippocampus against SE-induced neuronal death	significantly fewer	significantly more	significantly reduced seizure time
CCOc1ccc(Nc2ccc(C(=C3C=CC(=[N+](CC)Cc4cccc(S(=O)(=O)[O-])c4)C=C3C)c3ccc(N(CC)Cc4cccc(S(=O)(=O)O)c4)cc3C)cc2)cc1 [BBG, Brilliant Blue G]	significantly reduced	significantly higher	significantly less damage	–	–	significantly reduced seizure time

— EP2604265A1, “P2x7 antagonists as frontline or adjunctive treatment against status epilepticus” (Royal College of Surgeons in Ireland (RCSI), priority 2011, dated 2013)
